The values that follow come from US12648917B2 (University of Florida Research Foundation, Incorporated, priority 2017, dated 2026).

For data set [1] the following is noted: metformin 5 mg/ml in the drinking water; previously shown, comparable to human doses of 20 mg/kg/day; cited from earlier work.
The next data set deals with GA aggregates. Briefly: GA aggregates in retrosplenial cortex of C9-BAC mice. Conditions: for reduction in the number of GA aggregates compared to C9 controls: 5 mg/ml in drinking water. It counts as in vivo, mouse. On the procedure:
(§1) In Group A animals, treatment began at 2 months of age, before the onset of overt behavioral or pathological phenotypes. In Group B, smaller cohorts of animals (n=8/group) were treated beginning at 6 months, an age at which behavioral phenotypes are evident. DigiGait analyses of Group A mice at 5 months identified eight DigiGait parameters that differed between untreated C9 and NT cohorts. […]. […] […].
Cancer Prev Res (Phila) 3, 1066-1076, doi: 10.1158/1940-6207. CAPR-10-0055 (2010)). In Group A animals, three months of treatment began at 2 months of age, before the onset of overt behavioral or pathological phenotypes. In Group B, smaller cohorts of animals were treated for four months beginning at 6 months, an age at which behavioral phenotypes are evident^12.

Another data set deals with RAN protein translation. As to the kind of experiment: RAN protein levels by protein blot in HEK293T cells transfected with repeat expansion constructs. It counts as cell-based. The note with it: for RAN polyGP protein levels, dose dependence: HEK293T cells transiently transfected with G4C2 expansion constructs (FIG. 4). The text has this: . […] Protein blots were run on protein lysates from HEK293T cells transfected with various repeat expansion constructs shown in FIG. 1A. In FIG. 1B, the lanes labeled KMQ, show: RAN poly-Ser-Flag, RAN poly-Ala-HA, ATG initiated polyGln-Myc. In FIG. 1B, the lanes labeled KMQ has a methionine encoding ATG immediately 5′ to the CAG repeat expansion and located within the polyGln reading frame. The lanes labeled KKQ indicate the KKQ vector contains a CAG expansion without an AUG initiation codon, and indicates: RAN polySer-Flag, RAN polyAla-HA, RAN polyGln-Myc. These constructs contain epitope tags that are incorporated into the C-terminal regions of the ATG-initiated poly-Gln and non-ATG initiated RAN proteins (poly-Gln, poly-Leu-Pro-Ala-Cys and poly-Gly-Pro) which are expressed across these repeat expansions. The lane labeled CCTG expresses the following RAN proteins: RAN polyLPAC-Flag, RAN polyLPAC-HA, RAN polyLPAC-Myc. The lane labeled G4C2 is designed to detect the following RAN proteins: RAN polyGP-Flag, RAN polyGR-HA, RAN polyGA-Myc. […].
(§2) HEK293T cells were cultured in DMEM medium supplemented with 10% fetal bovine serum and incubated at 37° C. in a humid atmosphere containing 5% CO2. DNA transfections were performed using Lipofectamine 2000 Reagent (Invitrogen) according to the manufacturer's instructions.
(§3) Transfected cells in each well of a six-well tissue-culture plate were rinsed with PBS and lysed in 300 μL RIPA buffer with protease inhibitor cocktail for 45 min on ice. DNA was sheared by passage through a 21-gauge needle. The cell lysates were centrifuged at 16,000×g for 15 min at 4° C., and the supernatant was collected. The protein concentration of the cell lysate was determined using the protein assay dye reagent (Bio-Rad). Twenty micrograms of protein were separated in a 4-12% NuPAGE Bis-Tris gel (Invitrogen) and transferred to a nitrocellulose membrane (Amersham). The membrane was blocked in 5% dry milk in PBS containing 0.05% Tween-20 (PBS-T) and probed with the anti-Flag (1:2000), anti-Myc (1:1000), anti-HA (1:1000), or rabbit polyclonal antibodies (1:1000) in blocking solution. After the membrane was incubated with anti-rabbit or anti-mouse HRP-conjugated secondary antibody (Amersham), bands were visualized by the ECL plus Western Blotting Detection System (Amersham).
. Transient transfections of expansion constructs treated with or without metformin were performed. […]. […] Protein blots were run on protein lysates from HEK293T cells transfected with various repeat expansion constructs shown in FIG. 5A. In FIG. 5B, the lanes labeled KMQ, show: RAN poly-Ser-Flag, RAN poly-Ala-HA, ATG initiated polyGln-Myc. In FIG. 5B the lanes labeled KMQ has a methionine encoding ATG immediately 5′ to the CAG repeat expansion and located within the polyGln reading frame. The lanes labeled KKQ indicate the KKQ vector contains a CAG expansion without an AUG initiation codon, and indicates: RAN polySer-Flag, RAN polyAla-HA, RAN polyGln-Myc. These constructs contain epitope tags that are incorporated into the C-terminal regions of the ATG-initiated poly-Gln and non-ATG initiated RAN proteins (poly-Gln, poly-Leu-Pro-Ala-Cys and poly-Gly-Pro) which are expressed across these repeat expansions. The lane labeled CCTG expresses the following RAN proteins: RAN polyLPAC-Flag, RAN polyLPAC-HA, RAN polyLPAC-Myc. The lane labeled G4C2 is designed to detect the following RAN proteins: RAN polyGP-Flag, RAN polyGR-HA, RAN polyGA-Myc. […].

Data set [2] relates to glycine-proline (GP) RAN protein. As to the kind of experiment: GP RAN protein levels in leukocyte lysates from peripheral blood of a C9ORF72 expansion-positive subject. In kind it is in vivo. Conditions: single human subject with C9ORF72 repeat expansion, 500 or 1000 mg/day Metformin Hydrochloride Extended Release Tablets, 10 to 30 days after treatment. The text has this:
[…]. […] […]. […] […]

For another data set, the target named is T1, PKR (Homo sapiens, UniProt P19525).
T1 construct: endogenous in cells; host or cells: HEK293T
T1 sequence (P19525 whole entry): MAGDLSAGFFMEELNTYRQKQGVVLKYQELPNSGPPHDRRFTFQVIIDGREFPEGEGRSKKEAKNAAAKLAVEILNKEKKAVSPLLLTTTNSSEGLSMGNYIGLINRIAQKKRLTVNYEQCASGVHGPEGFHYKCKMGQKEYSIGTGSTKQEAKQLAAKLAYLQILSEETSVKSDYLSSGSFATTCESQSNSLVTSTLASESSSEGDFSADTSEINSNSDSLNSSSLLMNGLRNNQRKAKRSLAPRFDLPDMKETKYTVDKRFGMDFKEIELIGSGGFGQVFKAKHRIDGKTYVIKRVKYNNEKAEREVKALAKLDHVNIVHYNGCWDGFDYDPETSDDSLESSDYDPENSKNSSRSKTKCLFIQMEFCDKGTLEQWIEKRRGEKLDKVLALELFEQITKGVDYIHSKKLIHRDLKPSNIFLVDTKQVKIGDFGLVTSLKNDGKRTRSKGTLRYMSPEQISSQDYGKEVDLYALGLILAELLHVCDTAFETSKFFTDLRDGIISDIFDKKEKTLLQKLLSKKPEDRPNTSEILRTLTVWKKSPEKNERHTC
Briefly: p-PKR (T446 and T451) levels by protein blot in HEK293T cells transfected with repeat expansion constructs. It counts as cell-based. Conditions: for G4C2 repeat-expansion induced p-PKR (T446 and T451) levels, dose dependence: cells transfected with a G4C2 repeat expansion construct (FIG. 4). The protocol: as §2, §3
[…]. Transient transfections of expansion constructs treated with or without metformin were performed. […].

The test system of data set [3] is glial fibrillary acidic protein (GFAP). Briefly: IHC staining for GFAP (neuroinflammation, reactive gliosis) in C9-BAC mice. It counts as in vivo, mouse.
Another data set concerns C9-BAC mice. Briefly: Open field analysis (center time) in C9-BAC mice. It counts as in vivo, mouse. Conditions: Group A metformin-treated C9 mice compared to untreated C9 mice. The protocol: Open field analysis. Open field analysis was performed by testing mouse behavior during a 30 min session in a completely dark open chamber (17″×17″) (Med Associates). Approximately two hours before the start of analysis, mice were placed in the testing room to allow for acclimation to the room. Mice were then placed in the center of the darkened activity-monitoring chamber. The trace path and center time was recorded and analyzed with Activity Monitor (MED associates, Inc.) software.
as §1
DigiGait analyses of Group A mice at 5 months identified eight parameters that differed between untreated C9 and NT cohorts. […]. […]. […]

Entries after “also recorded” stand apart in the source; their conditions may differ.

For the compound `CN(C)C(=N)NC(=N)N` [metformin], the plasma levels in data set [1] is roughly 10 µM. The “reduction in the number of GA aggregates compared to C9 controls” value is listed as 38% with GA aggregates (Group A (treated from 2 months of age, 3 months), P=0.01) and 37% in the data set on GA aggregates (Group B (treated from 6 months of age), P=0.047). In the data set with GA aggregates (metformin in drinking water, Group A and Group B), the “GA aggregates compared to untreated C9 controls, in words” value was “decreased numbers of GA aggregates; also recorded: reduction in GA aggregates”. For the same compound, the “RAN protein levels of poly-Ala” value in the data set on RAN protein translation (HEK293T cells transfected with CAG repeat expansion constructs, treated with metformin, protein blot) is reported as “reduced; also recorded: decreases”. For the same compound, in the data set on RAN protein translation (HEK293T cells transfected with CCTG repeat expansion construct, treated with metformin, protein blot), the “RAN protein levels of poly-LPAC (all three reading frames)” value was “reduced; also recorded: decreases”. Further, the “RAN protein levels of poly-GP” value in the data set on RAN protein translation (HEK293T cells transfected with G4C2 (GGGGCC) repeat expansion construct, treated with metformin, protein blot) is “reduced; also recorded: decreases”. For the same compound, the “RAN protein levels / expression” value with RAN protein translation (HEK293T cells transiently transfected with CAG, CCTG, CAGG and G4C2 expansion constructs (FIG. 3A)) is reported as “decreases RAN protein levels; also recorded: reduces RAN protein expression”. Moreover, the “RAN polyGP protein levels, dose dependence” value with RAN protein translation is “reduce GP RAN protein levels in a dose-dependent manner”. The “glycine-proline (GP) RAN protein levels compared to pretreatment levels” value in data set [2] is given as “Dose dependent reduction; also recorded: Dose-dependent reduction”. For the same compound, the “G4C2 repeat-expansion induced p-PKR (T446 and T451) levels, dose dependence” value at PKR was “reduce levels of p-PKR”. Besides, the “p-PKR (T446 and T451) levels / PKR phosphorylation” value at PKR (cells transfected with repeat expansion constructs, with or without metformin (FIG. 3B, FIG. 6A)) was “decreases PKR phosphorylation; also recorded: reduces levels of p-PKR”. Further, the “GFAP staining / reactive gliosis compared to untreated C9 animals, in words” value in data set [3] (C9 metformin treated vs untreated C9 animals (Group A)) was “significantly reduced; also recorded: decreased levels of reactive gliosis”. Besides, the “reduction of GFAP staining compared to untreated C9 mice” value in data set [3] (Group A) stood at 79%; in data set [3] (Group B) it was 74%. For the same compound, the “open field center time (anxiety-like behavior)” value in the data set with C9-BAC mice is given as “increased center time; also recorded: normalization or increased center time; also recorded: normalized”.
As for `CCCCNC(=N)NC(=N)N` [buformin], the “RAN polyGP protein levels, dose dependence” value with RAN protein translation was “reduce GP RAN protein levels in a dose-dependent manner”. In addition, the “G4C2 repeat-expansion induced p-PKR (T446 and T451) levels, dose dependence” value at PKR is recorded as “reduce levels of p-PKR”.
Taken in the same sequence, the figures for `[H]/N=C(/N)N/C(=N/[H])NCCc1ccccc1` [phenformin] were “reduce GP RAN protein levels in a dose-dependent manner” and “reduce levels of p-PKR”.
